ChEMBL document CHEMBL5113491, “Discovery of N-benzylarylamide derivatives as novel tubulin polymerization inhibitors capable of activating the Hippo pathway” (Eur J Med Chem, 2022)
Active and inactive are the calls of the source. The rule behind the calls is not given here.

Experiments:
[1] = test system: KYSE-450; assay: Antiproliferative activity against human KYSE-450 cells assessed as inhibition of cell growth measured after 48 hrs by MTT assay; format: functional, cell-based; settings: KYSE-450, 48 h
[2] = test system: MGC-803; assay: Antiproliferative activity against human MGC-803 cells assessed as inhibition of cell growth at 15 to 45 […] by MTT assay; format: functional, cell-based; settings: dose 15-45 µmol/L, time <= 72.0 hrs, TDE = time-dependent effect
[3] = Cytotoxicity against human HUVEC cells assessed as reduction in cell viability measured after 48 hrs by MTT assay; format: toxicity, cell-based
[4] = test system: SGC-7901; assay: Inhibition of colony formation in human SGC-7901 cells measured after 7 days; format: functional, cell-based; settings: dose 6-30 nmol/L, time 7.0 day, DDE = dose-dependent effect
[5] = test system: SGC-7901; assay: Induction of G2/M phase cell cycle arrest in human SGC-7901 cells assessed as decrease in cyclin A2 expression at 15 to 45 nmol/L measured after 48 hrs by Western blot analysis; format: functional, cell-based; settings: dose 15-45 nmol/L
[6] = test system: SGC-7901; assay: Induction of G2/M phase cell cycle arrest in human SGC-7901 cells assessed as decrease in cyclin B1 expression at 15 to 45 nmol/L measured after 48 hrs by Western blot analysis; format: functional, cell-based; settings: dose 15-45 nmol/L
[7] = test system: SGC-7901; assay: Induction of G2/M phase cell cycle arrest in human SGC-7901 cells assessed as increase in p-Histone H3 expression at 15 to 45 nmol/L measured after 48 hrs by Western blot analysis; format: functional, cell-based; settings: dose 15-45 nmol/L
[8] = test system: SGC-7901; assay: Induction of apoptosis in human SGC-7901 cells assessed as increase in cleaved caspase 9 expression at 15 to 45 nmol/L measured after 48 hrs by Western blot analysis; format: functional, cell-based; settings: dose 15-45 nmol/L
[9] = test system: MGC-803; assay: Induction of morphological changes in human MGC-803 cells assessed as cell fragmentation at 15 to 45 nmol/L measured after 48 hrs by bright field microscopic analysis; format: functional, cell-based; settings: dose 15-45 nmol/L

**Q.** What does the source list for C/C=C/C(=O)N(Cc1ccc(OC)c(O)c1)c1cc(OC)c(OC)c(OC)c1?
**A.** IC50 [1]: 0.067 µM; Activity [2]: Tde; IC50 at 48 h [3]: 48.5 µM; inhibition [4]: Dde; Activity [5]: Active; Activity [6]: Active; Activity [7]: Active; Activity [8]: Active; Activity [9]: Active
